Where “and” joins values, the source holds several entries; their conditions need not be identical. Equal entries are not always repeated.

7 compounds from ChEMBL document CHEMBL2007661, “Compounds: GSK PKIS; Assays: UNC Frye lab” (2012) can be followed below.

Assay [1] concerns the target T1, Inhibitor of nuclear factor kappa-B kinase subunit beta (Homo sapiens) (UniProt O14920).
T1 sequence (whole entry): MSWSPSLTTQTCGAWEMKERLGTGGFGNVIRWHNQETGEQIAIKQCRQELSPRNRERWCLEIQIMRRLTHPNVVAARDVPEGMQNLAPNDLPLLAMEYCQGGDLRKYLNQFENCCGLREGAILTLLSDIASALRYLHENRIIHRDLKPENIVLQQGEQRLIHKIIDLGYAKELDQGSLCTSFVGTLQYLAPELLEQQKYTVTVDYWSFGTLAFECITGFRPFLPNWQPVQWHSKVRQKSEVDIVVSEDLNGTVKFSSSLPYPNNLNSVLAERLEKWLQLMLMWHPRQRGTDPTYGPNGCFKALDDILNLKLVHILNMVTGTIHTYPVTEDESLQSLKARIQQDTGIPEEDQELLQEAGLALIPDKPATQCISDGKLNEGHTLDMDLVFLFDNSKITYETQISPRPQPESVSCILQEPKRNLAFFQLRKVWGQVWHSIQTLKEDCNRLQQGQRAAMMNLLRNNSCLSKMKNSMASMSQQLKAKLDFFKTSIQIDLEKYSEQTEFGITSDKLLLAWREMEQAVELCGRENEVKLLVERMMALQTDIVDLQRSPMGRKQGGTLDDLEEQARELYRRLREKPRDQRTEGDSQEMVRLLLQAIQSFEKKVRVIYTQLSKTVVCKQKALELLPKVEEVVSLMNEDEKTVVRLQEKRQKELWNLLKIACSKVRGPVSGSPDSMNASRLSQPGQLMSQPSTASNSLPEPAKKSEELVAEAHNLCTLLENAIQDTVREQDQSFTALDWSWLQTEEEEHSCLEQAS
The conditions noted are these: at 1 µM.

The target of assay [2] is T2, Tyrosine-protein kinase Mer (Homo sapiens) (UniProt Q12866).
T2 sequence (whole entry): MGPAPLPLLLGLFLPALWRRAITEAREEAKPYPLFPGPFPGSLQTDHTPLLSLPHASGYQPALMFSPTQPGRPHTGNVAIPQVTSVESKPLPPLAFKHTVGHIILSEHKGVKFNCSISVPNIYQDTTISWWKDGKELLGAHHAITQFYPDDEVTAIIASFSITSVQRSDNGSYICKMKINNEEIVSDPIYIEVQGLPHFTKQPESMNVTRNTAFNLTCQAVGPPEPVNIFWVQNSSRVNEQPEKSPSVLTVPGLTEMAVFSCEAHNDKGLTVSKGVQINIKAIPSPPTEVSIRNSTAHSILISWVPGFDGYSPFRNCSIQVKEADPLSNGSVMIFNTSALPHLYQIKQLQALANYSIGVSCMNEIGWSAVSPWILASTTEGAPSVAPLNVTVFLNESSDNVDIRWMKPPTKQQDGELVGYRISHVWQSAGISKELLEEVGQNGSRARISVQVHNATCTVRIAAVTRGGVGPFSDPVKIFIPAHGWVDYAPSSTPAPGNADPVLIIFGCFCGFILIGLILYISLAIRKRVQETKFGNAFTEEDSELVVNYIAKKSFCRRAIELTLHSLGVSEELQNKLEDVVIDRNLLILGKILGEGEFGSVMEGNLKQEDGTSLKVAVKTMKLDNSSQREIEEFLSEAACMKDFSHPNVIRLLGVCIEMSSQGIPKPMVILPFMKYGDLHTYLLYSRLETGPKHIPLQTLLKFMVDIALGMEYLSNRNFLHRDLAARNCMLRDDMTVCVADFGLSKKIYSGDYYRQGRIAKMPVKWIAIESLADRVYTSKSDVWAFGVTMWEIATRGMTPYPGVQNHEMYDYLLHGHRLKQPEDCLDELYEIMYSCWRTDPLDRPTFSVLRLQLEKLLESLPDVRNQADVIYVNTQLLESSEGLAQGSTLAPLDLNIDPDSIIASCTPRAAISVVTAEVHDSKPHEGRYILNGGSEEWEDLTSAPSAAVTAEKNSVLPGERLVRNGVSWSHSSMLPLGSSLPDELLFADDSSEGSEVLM
The conditions noted are these: at 10 µM.

What is called inhibition is the drop in the measured response relative to a control, in per cent. As for `Fc1ccc(-c2ncn(C3CCNCC3)c2-c2ccnc(Oc3ccc(Oc4ccccc4)cc3)n2)cc1`, the inhibition in assay [1] and in assay [2] was 0% in each case.

`O=C(Nc1n[nH]c2nc(-c3ccco3)c(Br)cc12)C1CC1`: the inhibition in assay [1] is -5% and -1%; in assay [2] it was 83%.

On to `O=C(Nc1n[nH]c2cc(-c3ccc(F)cc3)ccc12)C1CC1`, for which the inhibition in assay [1] was -8% and -2%; in assay [2], 86%.

Consider `NCc1ccc(-c2nc(-c3ccc(Cl)c(O)c3)c(-c3ccncc3)[nH]2)cc1`, for which the inhibition is 2% in assay [1] and 0% in assay [2].

In the case of `COc1ccc(Nc2ncc(-c3ccccc3)o2)cc1OC`, the inhibition is -2% and -6% in assay [1]; 0% in assay [2].

As to `Oc1cccc(-c2nc(-c3ccccc3)[nH]c2-c2ccncc2)c1`, the inhibition is 1% and 0% in assay [1]; 3% in assay [2].

With `CCn1c(-c2nonc2N)nc2ccccc21`, the inhibition is -5% and -4% in assay [1]; 59% in assay [2].
